The target of the assay is T1, human CCR6 (Homo sapiens, UniProt P51684).
T1 construct: expressed in transfected cells; host or cells: HEK-293
T1 sequence (P51684 1-374): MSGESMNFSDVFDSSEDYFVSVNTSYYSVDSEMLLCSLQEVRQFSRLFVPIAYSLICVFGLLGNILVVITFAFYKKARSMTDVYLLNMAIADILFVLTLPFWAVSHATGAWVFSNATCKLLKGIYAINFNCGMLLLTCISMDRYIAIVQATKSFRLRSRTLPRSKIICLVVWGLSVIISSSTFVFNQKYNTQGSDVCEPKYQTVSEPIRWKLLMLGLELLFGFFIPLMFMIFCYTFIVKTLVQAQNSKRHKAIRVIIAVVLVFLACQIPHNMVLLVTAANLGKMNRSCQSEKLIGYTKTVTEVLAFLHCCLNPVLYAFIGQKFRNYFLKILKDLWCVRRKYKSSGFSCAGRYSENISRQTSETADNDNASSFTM
Briefly: FLIPR assay (inhibition of CCL20-induced calcium signal). It counts as cell-based. The conditions noted are these: HEK-293 cells expressing human CCR6; mean values where determined several times; read-out: FLIPR IC50. In a few lines: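 Dye-loaded HEK-293 cells expressing human CCR6 were preincubated with compound for 30 min at room temperature in the dark, then challenged with 10 nM CCL20 (final). Fluorescence was tracked on FLIPR, and baseline-subtracted peak emission over base after agonist addition gave inhibition dose-response curves for IC50.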
As a reminder, the IC50 is the concentration that inhibits the measured activity by half. Regarding `CC(C)Cc1ccc([C@](O)(c2cncc(-c3noc(C(C)(C)O)n3)c2)C2(C)CN(C)C2)cc1` [Example 573], the IC50 worked out at 75.9 nM.

`CN1CC(C)([C@](O)(c2ccc(OC3CCC3)cc2)c2cncc(-c3noc(C(C)(C)O)n3)c2)C1` [Example 574]: the IC50 was 1340 nM.

Regarding `C=C(C)c1ccc([C@](O)(c2cncc(-c3noc(C(C)(C)O)n3)c2)C2(C)CN(C)C2)cc1` [Example 575], the IC50 was 103 nM.

Consider `CC(=O)N1CCC(c2nc(-c3cncc([C@@](O)(c4ccc(CC(F)(F)F)cc4)C4(C)CN(C)C4)c3)no2)CC1` [Example 576], for which the IC50 worked out at 267 nM.

On to `CCCc1ccc([C@](O)(c2cncc(-c3noc(C4CCN(C(C)=O)CC4)n3)c2)C2(C)CN(C)C2)cc1` [Example 577], for which the IC50 is 66.1 nM.

Turning to `CC(=O)N1CCC(c2nc(-c3cncc([C@@](O)(c4ccc(C(C)C)cc4)C4(C)CN(C(C)C)C4)c3)no2)CC1` [Example 578, 1-[4-(3-{5-[(R)-Hydroxy-(1-isopropyl-3-methyl-azetidin-3-yl)-(4-isopropyl-phenyl)-methyl]-pyridin-3-yl}-[1,2,4]oxadiazol-5-yl)-piperidin-1-yl]-ethanone], the half-inhibitory concentration (IC50) was determined as 97.2 nM.

For the compound `CC(=O)N1CCC(c2nc(-c3cncc([C@@](O)(c4ccc(C(C)C)cc4)C4(C)CN(CC(F)F)C4)c3)no2)CC1` [Example 579, 1-[4-(3-{5-[(R)-[1-(2,2-Difluoro-ethyl)-3-methyl-azetidin-3-yl]-hydroxy-(4-isopropyl-phenyl)-methyl]-pyridin-3-yl}-[1,2,4]oxadiazol-5-yl)-piperidin-1-yl]-ethanone], the IC50 is 411 nM.

For `CC(=O)N1CCC(c2nc(-c3cncc([C@@](O)(c4ccc(C(C)C)cc4)C4(C)CN(CCO)C4)c3)no2)CC1` [Example 580, 1-[4-(3-{5-[(R)-Hydroxy-[1-(2-hydroxy-ethyl)-3-methyl-azetidin-3-yl]-(4-isopropyl-phenyl)-methyl]-pyridin-3-yl}[1,2,4]oxadiazol-5-yl)-piperidin-1-yl]-ethanone], the IC50 was 294 nM.

As for `CC(=O)N1CCC(c2nc(-c3cncc([C@@](O)(c4ccc(C(C)C)cc4)C4(C)CN(CC5CC5)C4)c3)no2)CC1` [Example 581], the IC50 is 113 nM.

On to `COCCN1CC(C)([C@](O)(c2ccc(C(C)C)cc2)c2cncc(-c3noc(C4CCN(C(C)=O)CC4)n3)c2)C1` [Example 582], for which the IC50 is 485 nM.

As for `CC(=O)N1CCC(c2nc(-c3cncc([C@@](O)(c4ccc(C(C)C)cc4)C4(C)CN(CCC(F)(F)F)C4)c3)no2)CC1` [Example 583], the IC50 amounted to 239 nM.

`CCCN1CC(C)([C@](O)(c2ccc(C(C)C)cc2)c2cncc(-c3noc(C4CCN(C(C)=O)CC4)n3)c2)C1` [Example 584]: the half-maximal inhibitory concentration (IC50) turned out to be 130 nM.

For `CCN1CC(C)([C@](O)(c2ccc(C(C)C)cc2)c2cncc(-c3noc(C4CCN(C(C)=O)CC4)n3)c2)C1` [Example 585], the IC50 came out at 116 nM.

For the compound `CC(=O)N1CCC(C#Cc2cncc([C@@](O)(c3ccc(C(C)C)cc3)C3(C)CN(C)C3)c2)CC1` [Example 586], the IC50 is 67 nM.

As for `CC(C)c1ccc([C@](O)(c2cncc(C#CC(C)(O)C(F)(F)F)c2)C2(C)CN(C)C2)cc1` (stereo partly shown) [Example 587], the IC50 stood at 14.8 nM.

As to `CC(C)c1ccc([C@](O)(c2cncc(C#CC(C)(C)NC(=O)C3CC3)c2)C2(C)CN(C)C2)cc1` [Example 588], the IC50 is 119 nM.

For `CC(C)C(=O)NC(C)(C)C#Cc1cncc([C@@](O)(c2ccc(C(C)C)cc2)C2(C)CN(C)C2)c1` [Example 589], the IC50 is 154 nM.

For `COCC(=O)NC(C)(C)C#Cc1cncc([C@@](O)(c2ccc(C(C)C)cc2)C2(C)CN(C)C2)c1` [Example 590], the IC50 was 235 nM.

As for `CC(C)c1ccc([C@](O)(c2cncc(C#CC(C)(C)N3CCOC3=O)c2)C2(C)CN(C)C2)cc1` [Example 591], the IC50 turned out to be 71.6 nM.

In the case of `CC(C)c1ccc([C@](O)(c2cncc(C#CC(C)(C)N3CCCC3=O)c2)C2(C)CN(C)C2)cc1` [Example 592], the IC50 stood at 44.8 nM.

Regarding `CC(C)c1ccc([C@](O)(c2cncc(C#CC(C)(C)N3CCN(C)C3=O)c2)C2(C)CN(C)C2)cc1` [Example 593], the IC50 is 51.6 nM.

With `CC(C)c1ccc([C@](O)(c2cncc(C#CC(C)(C)N3CCNC3=O)c2)C2(C)CN(C)C2)cc1` [Example 594], the IC50 turned out to be 45.4 nM.

Consider `CC(C)c1ccc([C@](O)(c2cncc(C#CC3(N4CCOC4=O)CC3)c2)C2(C)CN(C)C2)cc1` [Example 595], for which the IC50 is 93.2 nM.

Take `CC(=O)N1CCC[C@]1(C)C#Cc1cncc([C@@](O)(c2ccc(C(C)C)cc2)C2(C)CN(C)C2)c1` [Example 596]: the IC50 stood at 117 nM.

As to `CC(=O)N1CCC(O)(C#Cc2cncc([C@@](O)(c3ccc(C(C)C)cc3)C3(C)CN(C)C3)c2)CC1` [Example 597], the IC50 came out at 395 nM.

As to `CC(=O)N1CCC(C(C)(O)C#Cc2cncc([C@@](O)(c3ccc(C(C)C)cc3)C3(C)CN(C)C3)c2)CC1` (stereo partly shown) [Example 598], the IC50 was determined as 94.8 nM.

`CC(=O)N1CCC(C(O)C#Cc2cncc([C@@](O)(c3ccc(C(C)C)cc3)C3(C)CN(C)C3)c2)CC1` (stereo partly shown) [Example 599]: the IC50 is 149 nM.

For the compound `CC(=O)N1CCC(CC#Cc2cncc([C@@](O)(c3ccc(C(C)C)cc3)C3(C)CN(C)C3)c2)CC1` [Example 600], the concentration for half-maximal inhibition (IC50) was 45.7 nM.

Turning to `CC(=O)N1CCC(C)(C(O)C#Cc2cncc([C@@](O)(c3ccc(C(C)C)cc3)C3(C)CN(C)C3)c2)CC1` (stereo partly shown) [Example 601], the IC50 was found to be 75.5 nM.

Regarding `CC(=O)N1CCC(C)(C#Cc2cncc([C@@](O)(c3ccc(C(C)C)cc3)C3(C)CN(C)C3)c2)CC1` [Example 602], the concentration for half-maximal inhibition (IC50) is 39.5 nM.

As for `CC(C)c1ccc([C@](O)(c2cncc(C#CC3CCN(S(C)(=O)=O)CC3)c2)C2(C)CN(C)C2)cc1` [Example 603], the IC50 stood at 31.2 nM.

In the case of `CNS(=O)(=O)N1CCC(C)(C#Cc2cncc([C@@](O)(c3ccc(C(C)C)cc3)C3(C)CN(C)C3)c2)CC1` [Example 604], the concentration for half-maximal inhibition (IC50) came to 18.9 nM.

`CC(C)c1ccc([C@](O)(c2cncc(C#CC(C)(C)S(C)(=O)=O)c2)C2(C)CN(C)C2)cc1` [Example 605]: the IC50 is 78.6 nM.

Consider `CC(C)c1ccc([C@](O)(c2cncc(C#CC3(S(=O)(=O)N(C)C)CC3)c2)C2(C)CN(C)C2)cc1` [Example 606], for which the IC50 was 22.6 nM.

Regarding `CC(C)c1ccc([C@](O)(c2cncc(C#CC3(S(N)(=O)=O)CC3)c2)C2(C)CN(C)C2)cc1` [Example 607], the IC50 was 104 nM.

With `CC(C)c1ccc([C@](O)(c2cncc(C#CC(C)(C)S(=O)(=O)C3CC3)c2)C2(C)CN(C)C2)cc1` [Example 608], the IC50 worked out at 43.5 nM.

With `CC(C)c1ccc([C@](O)(c2cncc(C#C[C@]3(O)CCN(C)C3=O)c2)C2(C)CN(C)C2)cc1` [Example 609], the IC50 turned out to be 656 nM.

For `CC(C)c1ccc([C@](O)(c2cncc(C#C[C@@]3(O)CCN(C)C3=O)c2)C2(C)CN(C)C2)cc1` [Example 610], the IC50 was found to be 426 nM.

On to `CC(C)c1ccc([C@](O)(c2cncc(C#CC3(O)CCOc4cccnc43)c2)C2(C)CN(C)C2)cc1` (stereo partly shown) [Example 611], for which the IC50 turned out to be 74.9 nM.

On to `CC(C)c1ccc([C@](O)(c2cncc(C#CC3(O)C(=O)N(C)c4ccccc43)c2)C2(C)CN(C)C2)cc1` (stereo partly shown) [Example 612], for which the concentration for half-maximal inhibition (IC50) was 58.5 nM.

The values above are taken from patent US12617773B2, “Azetidin-3-ylmethanol derivatives as CCR6 receptor modulators” (Idorsia Pharmaceuticals Ltd, priority 2020, dated 2026).
